Consider seven compounds from patent publication US20220372033A1, “ANTIBACTERIAL COMPOUNDS” (Janssen Sciences Ireland Unlimited Company, priority 2019, published 2022).

Structures are written as SMILES. Values joined by “and” are separate entries in the source; they are usually repeats but may differ in a detail not shown here. Equal values may be shown once. Read-outs that look alike come from different tables or passages of the source. Some results are limits rather than exact numbers.

Series [1] relates to Mycobacterium tuberculosis (Mtb) bacilli, strain H37Ra. The series is described as follows: Phenotypic assay of O2 consumption rate (OCR), Test 4, Seahorse XFe96, with Compound X. Particulars: after Compound X 0.9 μM, test compound 10 μM and uncoupler CCCP 1 μM.
A further series relates to rCaCH. As to the kind of experiment: Cardio tox rCaCH. Particulars: read-out: Cardio tox rCaCH (pIC50) (converted). An excerpt:
(§1) The compounds of the invention/examples may have advantages associated with in vitro potency, kill kinetics (i.e. bactericidal effect) in vitro, PK properties, food effect, safety/toxicity (including liver toxicity, coagulation, 5-LO oxygenase), metabolic stability, Ames II negativity, MNT negativity, aqueous based solubility (and ability to formulate) and/or cardiovascular effect e.g. on animals (e.g. anesthetized guinea pig). The data below that was generated/calculated may be obtained using standard methods/assays, for instance that are available in the literature or which may be performed by a supplier (e.g. Microsomal Stability Assay—Cyprotex, Mitochondrial toxicity (Glu/Gal) assay—Cyprotex, as well as literature CYP cocktail inhibition assays).

Series [2] relates to Mycobacterium tuberculosis strain H37Rv ΔctaE-ΔqcrCAB. As to the kind of experiment: microbe, parasite or virus in culture. Type of series: cell-based. Particulars: 240 h.
The subject of another series is rNaCH. The series is described as follows: Cardio tox rNaCH.
From the text: as §1

The target in a further series is hERG(DOF) (Homo sapiens, UniProt Q12809). The series is described as follows: Cardio tox hERG(DOF).
Chain of hERG(DOF) (Q12809 whole entry): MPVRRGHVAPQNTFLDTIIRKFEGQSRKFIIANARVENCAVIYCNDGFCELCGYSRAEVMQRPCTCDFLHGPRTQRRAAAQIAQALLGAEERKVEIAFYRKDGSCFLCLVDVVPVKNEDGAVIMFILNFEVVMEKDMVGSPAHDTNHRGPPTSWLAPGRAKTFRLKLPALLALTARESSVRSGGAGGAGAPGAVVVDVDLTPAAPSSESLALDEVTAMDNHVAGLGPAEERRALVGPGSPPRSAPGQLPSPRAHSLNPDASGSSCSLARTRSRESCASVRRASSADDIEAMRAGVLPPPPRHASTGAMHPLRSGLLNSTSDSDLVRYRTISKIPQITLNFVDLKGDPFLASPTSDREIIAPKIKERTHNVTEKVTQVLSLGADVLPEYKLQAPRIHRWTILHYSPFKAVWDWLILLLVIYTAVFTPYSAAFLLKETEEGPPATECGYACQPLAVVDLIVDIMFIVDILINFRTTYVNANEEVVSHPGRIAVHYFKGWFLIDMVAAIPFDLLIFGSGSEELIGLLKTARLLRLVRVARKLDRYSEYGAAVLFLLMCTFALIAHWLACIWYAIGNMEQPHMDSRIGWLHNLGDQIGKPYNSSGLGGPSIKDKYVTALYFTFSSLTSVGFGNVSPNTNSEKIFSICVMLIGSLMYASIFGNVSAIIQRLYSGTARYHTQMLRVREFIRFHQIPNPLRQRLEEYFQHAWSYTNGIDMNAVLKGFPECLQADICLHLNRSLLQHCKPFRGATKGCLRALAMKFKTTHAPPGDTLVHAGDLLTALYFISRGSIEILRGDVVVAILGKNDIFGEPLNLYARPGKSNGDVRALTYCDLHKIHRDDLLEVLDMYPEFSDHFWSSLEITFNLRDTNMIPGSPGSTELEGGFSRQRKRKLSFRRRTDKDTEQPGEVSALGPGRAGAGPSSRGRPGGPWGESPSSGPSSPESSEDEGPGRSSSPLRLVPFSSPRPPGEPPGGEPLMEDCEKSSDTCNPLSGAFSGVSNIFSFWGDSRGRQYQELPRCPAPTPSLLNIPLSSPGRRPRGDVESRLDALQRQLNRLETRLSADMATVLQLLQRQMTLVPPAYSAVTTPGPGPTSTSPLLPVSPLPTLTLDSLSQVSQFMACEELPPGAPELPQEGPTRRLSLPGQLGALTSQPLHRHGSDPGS
From the text: as §1
For orientation: The hERG channel carries a current that helps repolarise heart muscle cells.

Series [3] deals with Mitochondrial toxicity (Glu/Gal). The series is described as follows: Mitochondrial toxicity (Glu/Gal) assay. Type of series: cell-based. Particulars: for Mitotoxicity Score: Glu/Gal assay, <3 indicates no mitotoxicity alerts.
From the text: as §1
Compounds of the invention/examples, may therefore have the advantage that: • No in vitro cardiotoxicity is observed (for example either due to the CVS results or due to the Glu/Gal assay results, for instance low mitotoxicity (<3 in the Glu/Gal assay indicates no mitotoxicity alerts); and/or • No reactive metabolite formation is observed (e.g. GSH);

As to `Cc1c(-c2ccc3cc(-c4cccc(OC(F)(F)F)c4)nn3c2)[nH]c2ccccc2c1=O` [Compound 1], the melting point was 243.7 °C. For the same compound, the “(ii) % OCR after cccp” value in series [1] is 93.2%. The IC50 with rCaCH was 3.5 µM. In series [2], this compound gave an IC50 of 27.8 µM. The same compound came in with an IC50 in the series on rNaCH of 3.02 µM. The IC50 against hERG(DOF) stood at 3.98 µM. For the same compound, in series [3], the “Mitotoxicity Score” value is “positive”.
For `CCc1nc2ccc(-c3[nH]c4ccccc4c(=O)c3C)cn2c1C(=O)NCc1ccc(OC(F)(F)F)cc1` [Compound 7], the “(ii) % OCR after cccp” value in series [1] was determined as 110.6%. Besides, the “Mitotoxicity Score” value in series [3] is given as “negative”.
The compound `Cc1c(-c2ccc3nc(-c4cccc(OC(F)(F)F)c4)cn3c2)[nH]c2ccccc2c1=O` [Compound 5] displayed a melting point of 229.9 °C. Moreover, the “(ii) % OCR after cccp” value in series [1] was found to be 159.3%. In the series with rCaCH, the IC50 was greater than 10 µM. In series [2], this compound showed an IC50 greater than 100 µM. In the series with rNaCH, this compound displayed an IC50 of 3.8 µM. For the same compound, the IC50 on hERG(DOF) is greater than 10 µM.
As for `Cc1c(-c2ccc3cc(-c4cccc(OC(F)(F)F)c4)nn3c2)[nH]c2ccccc2c1=O` [Compound 8], the “(ii) % OCR after cccp” value in series [1] came to 93.125%. In addition, the “Mitotoxicity Score” value in series [3] is given as “positive”. The IC50 was 10.8 µM in series [3] (galactose medium, read-out: IC50, gal) and no less than 200 µM in series [3] (glucose medium, read-out: IC50, glu).
In turn, `Cc1c(-c2ccc3cc(-c4cccc(OC(F)(F)F)c4)cn3c2)[nH]c2ccccc2c1=O` [Compound 3] yielded a melting point of 257.8 °C. Besides, the “(ii) % OCR after cccp” value in series [1] was 196.1% and 131.0%. In addition, the IC50 with rCaCH was greater than 10 µM. This compound also showed an IC50 in series [2] greater than 100 µM. The same compound came in with an IC50 in the series on rNaCH of 1.9 µM. At hERG(DOF), the IC50 is greater than 10 µM. Besides, the “Mitotoxicity Score” value in series [3] is recorded as “negative”.
For the compound `Cc1c(-c2ccc3nc(-c4ccccc4)cn3c2)[nH]c2ccccc2c1=O` [Compound 4], the melting point was found to be 337.2 °C. Also, the “(ii) % OCR after cccp” value in series [1] turned out to be 144.1%. In series [2], this compound had an IC50 greater than 100 µM.
In turn, `Cc1c(-c2ccc3nc(Cc4ccc(OC(F)(F)F)cc4)cn3c2)[nH]c2ccccc2c1=O` [Compound 2] gave a melting point of 244.8 °C. Besides, the “(ii) % OCR after cccp” value in series [1] was 112.0%. In the series on rCaCH, the IC50 is greater than 10 µM. This compound also showed an IC50 in series [2] of 91.8 µM. In the series with rNaCH, this compound yielded an IC50 of 2.6 µM. At hERG(DOF), this compound displayed an IC50 of 1.8 µM. For the same compound, the “Mitotoxicity Score” value in series [3] is given as “positive”.

What is called melting point is the temperature, or range, at which the solid turns liquid.
